Reference: US6444194B1, “Indium photosensitizers for PDT” (Miravant Pharmaceuticals, Inc., priority 1997, dated 2002)
pIC50: −log10 of the molar value.

Assays:
[1] = Photophysical measurements of photosensitizers (λmax, ε, φ f); assay type: physicochemical; set-up: λmax: unit not given here; conditions: for ε: at λmax; for λmax: band I absorption maximum
[2] = tested on: Chinese hamster lung fibroblasts (V-79); assay: DC(50)(light): colony-formation phototoxicity after laser irradiation; assay type: cell-based; conditions: V-79 cells; sensitizer incubation 16-24 hours; 12.5 mW/cm^2, total light dose 1.25 J/cm^2; concentration for lethal damage to 50% of cells
Protocol: (§1) For the Biological Evaluation, Chinese hamster lung fibroblasts (V-79) obtained from the American Tissue Culture Collection were grown in D-MEM supplemented with 10% fetal calf serum at 37° C., 5% CO2, and 95% humidity. These cells were used to evaluate the sensitizers for dark and light toxicity, and cellular uptake. Medium was replaced with 5% fetal calf serum supplemented medium during sensitizer incubations.
In the first phase, the combination of intracellular and extracellular concentration of photosensitizer required for lethal damage to 50% of the cells in culture (DC(50)) on light exposure was determined by plating cells at a density of 100 cells/cm^2 and incubating for 1-3 hours to allow attachment of the cells. Cells were incubated with various concentrations of sensitizer ([C]=0.01-1.0 μM) delivered in non-toxic concentrations of DMSO/5% dextrose solution or in some cases in egg yolk phosphatidase (EYP) for 16-24 hours. The cells were then irradiated with laser light using a tunable Lexel argon pumped dye laser at the band I absorption of the photosensitizer. Total power density was adjusted to 12.5 mW/cm^2 and a total light dose of 1.25 J/cm^2 was applied. After treatment, cells were washed with HBSS, refed with 10% FBS supplemented DMEM with phenol red and incubated for 3-5 days to allow colony formation. Cells were fixed in methanol, stained with Giemsa, and colonies were counted. Plating efficiency was determined using a control colony and the mean percent survival fraction plotted against the sensitizer concentration and the DC50 established (Table 5).

BA mammary carcinoma = assay: In vivo assay of photosensitizers on tumors (PDT tumor cure); set-up: species or system C3H/HeJ mice; conditions: light dose 200 J/cm^2, n = 10
Protocol: Female C3H/HeJ mice (8-9 weeks old) were subjected to trochar implantation of BA mammary carcinoma on the hind leg of the animals. Animals having tumors ca 5 mm in diameter were entered into the in vivo screen. For each new photosensitizer, a group of at least three mice were used to ascertain a drug dose that caused a response as described in table 3 when treated with the appropriate wavelength of light. Generally in this series, animals were injected with 1 μ mole of sensitizer/Kg of body weight, formulated in egg yolk phosphatidate (EYP), via the tail vein. At a defined time period later the animals were irradiated with light from a laser source tuned to the wavelength of activation of the sensitizer. The power density of the laser was set at 75 mW/cm^2 with a total light dose of 200 J/cm^2.

V-79 cells = assay: Cellular uptake of photosensitizer; assay type: in vitro ADME, Chinese hamster; conditions: 10 μM photosensitizer in EYP
Protocol: as §1
Several photosensitizers were screened by a standard cellular uptake protocol. A 10 μM stock solution of photosensitizer in EYP was prepared by dilution of the photosensitizer stock (1 mM) using 5% dextrose solution. […] Following incubation the cells were washed with PBS (1 mL) three times, then washed with HBSS (1 mL) and detached using 100 μL of trypsin. Individual wells containing cells were lysed by three freeze thaws.
Spiking experiments were performed to confirm that the sensitizer could be adequately recovered using standard procedures. The sensitizer was then extracted from the cell debris with DMSO, centrifuged and the supernatant examined for fluorescence. Sensitizer concentration was determined by comparison to a standard curve. Results are expressed in ug/ug protein. Untreated monolayers are used to determine cell count. Treated cells of each time point were used to determine the protein concentration using the BCA assay. Results shown are the mean of the three experiments for each timepoint.

[3] = drug dose 0.05 μm/Kg via tail vein in EYP, treatment 24 post injection
[4] = drug dose 2.5 μm/Kg via tail vein in EYP, treatment 24 post injection
[5] = drug dose 3 μm/Kg via tail vein in EYP, treatment 24 post injection
[6] = drug dose 0.1 μm/Kg via tail vein in EYP, treatment 24 post injection

Compound | φ f [1] | ε [1] | λmax [1] | pIC50 [2] | further results
CCC1=C(CC)C2=NC1=Cc1c(CC)c(CC)c3[n]1[In]([Cl])[n]1c(c(CC)c(CC)c1=c1cc(S(=O)(=O)NCCCCC(N)C(=O)O)cc4c1=NC(=C3)C4(CC)CC)=C2 (centres unmarked) [Compound 21, InOEBCSO2NH (CH2)4CH(NH2)CO2H] | 0.03 | 52,000 M^−1 cm^−1 | 684 | 7.40 | 
CCC1=C(CC)C2=NC1=Cc1c(CC)c(CC)c3[n]1[In]([Cl])[n]1c(c(CC)c(CC)c1=c1cc(S(=O)(=O)NCC(=O)O)cc4c1=NC(=C3)C4(CC)CC)=C2 [Compound 20] |  | 52,000 M^−1 cm^−1 | 684 | 7.40 | 
CCC1=C(CC)C2=NC1=Cc1c(CC)c(CC)c3[n]1[In]([Cl])[n]1c(c(CC)c(CC)c1=c1cc(S(=O)(=O)N(CCO)CCO)cc4c1=NC(=C3)C4(CC)CC)=C2 [Compound 12] | ˜0.03 | 52,000 M^−1 cm^−1 | 684 | 7.40 | % Cure (30 days) (BA mammary carcinoma; [3]): 90%
CCC1=C(CC)c2cc3[nH]c(c(CC)c3CC)c3cc(S(=O)(=O)NCCCO)cc4c3nc(cc3[nH]c(cc1n2)c(CC)c3CC)C4(CC)CC [Compound 2, OEBCSO2NH(CH2)3OH] | 0.230 | 34,000 M^−1 cm^−1 | 665 | 6.00 to 6.30 | % Cure (30 days) (BA mammary carcinoma; [4]): 80%; Cellular uptake (24 hrs) (V-79 cells): 0.129 ρmole/μg protein
CCC1=C(CC)C2=NC1=Cc1c(CC)c(CC)c3[n]1[In]([Cl])[n]1c(c(CC)c(CC)c1=c1cc(C)cc4c1=NC(=C3)C4(CC)CC)=C2 [Compound 11] | 0.034 | 54,000 M^−1 cm^−1 | 687 |  | % Cure (30 days) (BA mammary carcinoma; drug dose 0.15 μm/Kg via tail vein in EYP, treatment 24 post injection): 90%
CCC1=C(CC)C2=NC1=Cc1c(CC)c(CC)c3[n]1[In]([Cl])[n]1c(c(CC)c(CC)c1=c1cc(S(=O)(=O)NCCCCCO)cc4c1=NC(=C3)C4(CC)CC)=C2 [Compound 13] | ˜0.03 | 52,000 M^−1 cm^−1 | 684 | 7.40 | % Cure (30 days) (BA mammary carcinoma; drug dose 0.075 μm/Kg via tail vein in EYP, treatment 24 post injection): 80%
CCC1=C(CC)C2=NC1=Cc1c(CC)c(CC)c3[n]1[In]([Cl])[n]1c(c(CC)c(CC)c1=c1cc(S(=O)(=O)NCCOCCOCCOC)cc4c1=NC(=C3)C4(CC)CC)=C2 [Compound 16] | ˜0.03 | 52,000 M^−1 cm^−1 | 684 | 7.40 | % Cure (30 days) (BA mammary carcinoma; [3]): 80%
CCC1=C(CC)c2cc3[nH]c(c(CC)c3CC)c3cccc4c3nc(cc3[nH]c(cc1n2)c(CC)c3CC)C4(CC)CC [Compound 1, Octaethylbenzochlorin] | 0.347 | 35,000 M^−1 cm^−1 | 658 | < 6.00 | % Cure (30 days) (BA mammary carcinoma; [5]): 60%
CCC1=C(CC)C2=NC1=Cc1c(CC)c(CC)c3[n]1[In]([Cl])[n]1c(c(CC)c(CC)c1=c1cc(S(=O)(=O)NC(CO)(CO)CO)cc4c1=NC(=C3)C4(CC)CC)=C2 [Compound 19, InOEBCSO2NHC(CH2OH)3] | 0.03 | 52,000 M^−1 cm^−1 | 684 | 7.40 | 
CCC1=C(C)C2=NC1=Cc1c(C)c3c4[n]1[In]([Cl])[n]1c(c(C)c(C(C)=O)c1=C2)=CC1=NC(=C4CC3=O)[C@@H](CCC(=O)OC)[C@@H]1C [Compound 26, Indium 2-desvinyl-2-acetyl pyropheophorbide] |  |  | 672 | 7.22 | % Cure (30 days) (BA mammary carcinoma; drug dose 0.125 μm/Kg via tail vein in EYP, treatment 8 post injection): 90%
Indium 2-desvinyl-2-formyl pyropheophorbide [Compound 27] |  |  | 683 | 7.30 | % Cure (30 days) (BA mammary carcinoma; drug dose 0.1 μm/Kg via tail vein in EYP, treatment 8 post injection): 90%
CCC1=C(CC)c2cc3[nH]c(c(CC)c3CC)c3cc(C)cc4c3nc(cc3[nH]c(cc1n2)c(CC)c3CC)C4(CC)CC [Compound 3] | 0.35 | 35,000 M^−1 cm^−1 | 658 |  | % Cure (30 days) (BA mammary carcinoma; [4]): 60%
C=Cc1c(C)c2[n]3c1=CC1=NC(=Cc4c(C)c5c([n]4[Sn]3([Cl])[Cl])C(=C3N=C(C=2)[C@@H](C)[C@@H]3CCC(=O)OC)CC5=O)C(CC)=C1C [Compound 23] |  |  |  | < 6.00 | % Cure (30 days) (BA mammary carcinoma; drug dose 2.0 μm/Kg via tail vein in EYP, treatment 24 or 6 post injection): 0%
CCC1=C(CC)C2=NC1=Cc1c(CC)c(CC)c3[n]1[Zn][n]1c(c(CC)c(CC)c1=c1cccc4c1=NC(=C3)C4(CC)CC)=C2 [Compound 4] | 0.150 | 57,000 M^−1 cm^−1 | 678 | < 6.00 | % Cure (30 days) (BA mammary carcinoma; [5]): 0%
C=Cc1c(C)c2cc3nc(c4c5[nH]c(cc6nc(cc1[nH]2)C(C)=C6CC)c(C)c5C(=O)C4)[C@@H](CCC(=O)OC)[C@@H]3C [Compound 22] |  |  |  |  | % Cure (30 days) (BA mammary carcinoma; drug dose 10.6 μm/Kg via tail vein in EYP, treatment 3 post injection): 50%
CCC1=C(CC)C2=NC1=Cc1c(CC)c(CC)c3[n]1[In]([Cl])[n]1c(c(CC)c(CC)c1=c1cccc4c1=NC(=C3)C4(CC)CC)=C2 [Compound 9, In Octaethylbenzochlorin] | 0.028 | 53,000 M^−1 cm^−1 | 691 | 7.00 | % Cure (30 days) (BA mammary carcinoma; [6]): 70%; Cellular uptake (24 hrs) (V-79 cells): 0.336 ρmole/μg protein
CCC1=C(C)C2=NC1=Cc1c(C)c3c4[n]1[Pd][n]1c(c(C)c(C(C)=O)c1=C2)=CC1=NC(=C4CC3=O)[C@@H](CCC(=O)OC)[C@@H]1C [Compound 28] |  |  | 653 | 7.30 | % Cure (30 days) (BA mammary carcinoma; drug dose 0.2 μm/Kg via tail vein in EYP, treatment 8 post injection): 80%
tin octaethylbenzochlorin [Compound 6] | 0.044 | 54,000 M^−1 cm^−1 | 691 | 6.80 to 7.10 | % Cure (30 days) (BA mammary carcinoma; drug dose 0.75 μm/Kg via tail vein in EYP, treatment 24 post injection): 80%; Cellular uptake (24 hrs) (V-79 cells): 0.501 ρmole/μg protein
C=Cc1c(C)c2[n]3c1=CC1=NC(=Cc4c(C)c5c([n]4[In]3[Cl])C(=C3N=C(C=2)[C@@H](C)[C@@H]3CCC(=O)OC)CC5=O)C(CC)=C1C [Compound 24] |  |  |  |  | % Cure (30 days) (BA mammary carcinoma; drug dose 0.2 μm/Kg via tail vein in EYP, treatment 6 or 8 post injection): 80%
CCC1=C(CC)C2=NC1=Cc1c(CC)c(CC)c3[n]1[In]([Cl])[n]1c(c(CC)c(CC)c1=c1cc(S(=O)(=O)NCCCO)cc4c1=NC(=C3)C4(CC)CC)=C2 [Compound 10, InOEBCSO2NH(CH2)3OH] | 0.027 | 52,000 M^−1 cm^−1 | 684 | 6.90 to 7.00 | % Cure (30 days) (BA mammary carcinoma; [6]): 100%
CCC1=C(CC)C2=NC1=Cc1c(CC)c(CC)c3[n]1[In]([Cl])[n]1c(c(CC)c(CC)c1=c1cc(S(=O)(=O)NCCN(C)C)cc4c1=NC(=C3)C4(CC)CC)=C2 [Compound 15] | ˜0.03 | 52,000 M^−1 cm^−1 | 684 | 7.30 | % Cure (30 days) (BA mammary carcinoma; [3]): 100%
CCC1=C(CC)C2=NC1=Cc1c(CC)c(CC)c3[n]1[In]([Cl])[n]1c(c(CC)c(CC)c1=c1cc(S(=O)(=O)NCCCS)cc4c1=NC(=C3)C4(CC)CC)=C2 [Compound 18] | 0.03 | 52,000 M^−1 cm^−1 | 684 | 7.40 | 
